Test results taken from patent publication US8288367B2, “Substituted estratriene derivatives as 17BETA HSD inhibitors” (Solvay Pharmaceuticals GmBH, priority 2006, dated 2012).

Key:
[1] = target: T1, recombinant human 17β-HSD1 (Homo sapiens, UniProt P14061); test: Recombinant 17β-HSD1 assay (HPLC, 3H-estrone conversion); type: biochemical; conditions: 30 nM estrone, 1 mM NADPH, 30 min RT, read-out: Inhibition of rec. 17β-HSD1; for inhibition at 0.1 µM: 100 nM compound; for inhibition at 1 µM: 0.5 h, 1 μm compound
T1 construct: made in house; host or cells: Sf9 insect cells (baculovirus, Bac to Bac Expression System)
T1 sequence (P14061 1-328): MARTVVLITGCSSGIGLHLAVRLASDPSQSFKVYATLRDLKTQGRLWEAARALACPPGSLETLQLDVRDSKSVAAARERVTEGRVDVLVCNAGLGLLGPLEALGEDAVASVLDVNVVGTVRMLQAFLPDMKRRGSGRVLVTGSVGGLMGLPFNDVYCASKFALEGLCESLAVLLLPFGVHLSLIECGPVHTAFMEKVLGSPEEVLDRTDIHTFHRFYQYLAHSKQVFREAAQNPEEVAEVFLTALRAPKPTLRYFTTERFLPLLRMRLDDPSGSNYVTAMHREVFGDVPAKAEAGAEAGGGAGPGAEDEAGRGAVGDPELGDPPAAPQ
How it was run: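 Sf9-expressed human 17β-HSD1 homogenate (0.1 μg/ml) in 20 mM KH2PO4 pH 7.4 with 30 nM estrone plus 3H-estrone tracer and 1 mM NADPH, 30 min at RT, inhibitors at 1 μM or 0.1 μM. Stopped with TCA; estrone and estradiol separated by reverse-phase HPLC with flow scintillation; % inhibition = 100 − % conversion.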

[2] = target: T2, recombinant human 17β-HSD2 (Homo sapiens, UniProt P37059); test: Recombinant 17β-HSD2 assay (HPLC, 3H-estradiol conversion); type: biochemical; conditions: 50 nM estradiol, 1 mM β-NAD, read-out: Inhibition of rec. 17β-HSD2; for inhibition at 0.1 µM: 100 nM compound; for inhibition at 1 µM: 1 μm compound
T2 construct: made in house; host or cells: Sf9 insect cells (baculovirus, Bac to Bac Expression System)
T2 sequence (P37059 1-387): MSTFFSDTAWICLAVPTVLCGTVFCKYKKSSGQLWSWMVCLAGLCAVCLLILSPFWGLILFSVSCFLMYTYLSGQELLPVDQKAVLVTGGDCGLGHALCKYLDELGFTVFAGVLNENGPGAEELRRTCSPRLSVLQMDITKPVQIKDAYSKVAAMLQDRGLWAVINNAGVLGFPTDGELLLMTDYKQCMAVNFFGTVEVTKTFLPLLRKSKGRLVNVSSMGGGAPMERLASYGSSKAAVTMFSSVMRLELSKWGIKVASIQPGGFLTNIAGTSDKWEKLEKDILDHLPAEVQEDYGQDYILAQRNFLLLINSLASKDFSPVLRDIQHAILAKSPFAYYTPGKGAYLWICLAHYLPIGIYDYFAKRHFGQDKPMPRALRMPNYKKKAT
How it was run: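 Homogenate of Sf9 cells expressing recombinant human 17β-HSD2 (6 μg/ml protein) incubated with 50 nM estradiol plus 3H-estradiol tracer and 1 mM β-NAD. Estrone and estradiol radioactivity separated by HPLC; % inhibition = 100 − % conversion to estrone.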

[3] = target: T3, 17β-HSD3 enzyme (Homo sapiens, UniProt P37058); test: Inhibition of 17β-HSD type 3 enzyme in MCF-7 cells stably expressing 17β-HSD3 (HPLC); type: cell-based; conditions: MCF7, MCF-7 cells expressing 17β-HSD3, 2 nM androstenedione; for inhibition at 1 µM: 1 μM compound; for inhibition at 10 µM: 10 μM compound
T3 construct: expressed in transfected cells; host or cells: MCF-7 cell lines stably expressing 17β-HSD3
T3 sequence (P37058 1-310): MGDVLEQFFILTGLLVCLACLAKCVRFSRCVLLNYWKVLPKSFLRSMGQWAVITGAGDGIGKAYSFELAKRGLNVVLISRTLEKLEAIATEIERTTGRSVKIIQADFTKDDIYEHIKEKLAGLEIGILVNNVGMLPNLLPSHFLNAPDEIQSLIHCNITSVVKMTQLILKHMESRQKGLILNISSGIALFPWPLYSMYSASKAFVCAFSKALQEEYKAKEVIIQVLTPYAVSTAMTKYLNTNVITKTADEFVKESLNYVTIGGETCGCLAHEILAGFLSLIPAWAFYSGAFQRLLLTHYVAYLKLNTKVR
Protocol: The compounds were screened in respect of 17β-HSD3 enzyme activity in vitro on established MCF-7 cell lines, each stably expressing the 17β-HSD3 enzyme. The interconversion of substrate by 17β-HSD3 and the 17β-HSD3 inhibiting activity of chemical compounds in these cell lines were detected by HPLC system.
Varying amounts of the test compounds were incubated in the growth medium of the 17β-HSD3 expressing cells together tritium labeled androstenedione (2 nM). The medium samples were removed after exact incubation time and the reaction is stopped by trichloroacetic acid (TCA). The samples were analyzed by HPLC-coupled flow scintillation analysis.
Conversion: The 17β-HSD3 inhibiting activity of an individual test compound was calculated by comparing the conversion of a control sample without any test compound (referred to as “Negative Control”) to the (reduced) conversion of the test sample containing the particular compound to be tested (referred to as “Test Sample”).

| Compound | inhibition at 0.1 µM [1] [%] | inhibition at 1 µM [1] [%] | inhibition at 0.1 µM [2] [%] | inhibition at 1 µM [2] [%] | inhibition at 1 µM [3] [%] | inhibition at 10 µM [3] [%] |
| --- | --- | --- | --- | --- | --- | --- |
| CCN(CC)C(=O)CC[C@@H]1CC(F)(F)[C@@]2(C)CC[C@@H]3c4ccc(B(O)O)cc4CC[C@H]3[C@H]12 [Compound 71, [15beta-[3-(diethylamino)-3-oxopropyl]-17,17-difluoroestra-1(10),2,4-trien-3-yl]boronic acid] | 78 | 85 | 7.9 | 16.3 | 31 | 60 |
| COc1ccc(CCN(C)C(=O)CC[C@@H]2CC(F)(F)[C@@]3(C)CC[C@@H]4c5ccc(B(O)O)cc5CC[C@H]4[C@H]23)cc1OC [Compound 72, [15beta-(3-{[2-(3,4-dimethoxyphenyl)ethyl](methyl)amino}-3-oxopropyl)-17,17-difluoroestra-1(10),2,4-trien-3-yl]boronic acid] | 39 | 77 | -2.4 | 5.3 | 45 | 71 |
| C[C@]12CC[C@@H]3c4ccc(Nc5ccc6c(c5)S(=O)(=O)C=C6)cc4CC[C@H]3[C@@H]1[C@@H](CCCC(=O)N1CCOCC1)CC2=O [Compound 91, 3-[(1,1-dioxido-1-benzothien-6-yl)amino]-15alpha-(4-morpholin-4-yl-4-oxobutyl)estra-1(10),2,4-trien-17-one] | 36 | 69 | 0.7 | 5.7 | 7 | 52 |
